Reference: patent publication EP3613735A1, “NOVEL SIRT 1 ACTIVATOR AND MEDICINAL USE THEREOF” (Pusan National University Industry - University Cooperation …, priority 2017, dated 2018)

System: yeast (Saccharomyces cerevisiae)
Assay: Yeast lifespan extension
Conditions: yeast group treated, compared with the control group

Structure (SMILES): Cl.O=C(Nc1ccccc1-c1cc2ccc(CN3CCNCC3)cc2o1)c1ccc2ccccc2c1 [Compound 32u, N-(2-(6-(Piperazin-1-ylmethyl)benzofuran-2-yl)phenyl)-2-naphthamide hydrochloride]
- lifespan: significantly extended
